{
  "source": "patent US20160310501A1",
  "about": "“GABA[…] SIGMA RECEPTOR LIGANDS COMBINATIONS” (LABORATORIOS DEL DR. ESTEVE, S.A., priority 2013, published 2016)",
  "test_system": "post-operative pain model in rats",
  "assay": "Mechanical allodynia (von Frey filaments) in the post-operative pain model (plantar incision)",
  "assay_type": "in vivo",
  "protocol": "The induction of anesthesia in rats was performed with 3% isofluran for veterinary use, employing an Ohmeda vaporizer and an anesthesia chamber. Anesthesia was kept during the surgical operation by a tube which directs the isofluran vapors to the animal's snout. Once the rats were anesthetized, they were laid down in a prone position and their right hind paws were cleaned out with alcohol.\nThen, a skin incision in the hindpaw of about 10 mm was made by means of a scalpel, starting about 5 mm from the heel and extending toward the toes. Fascia was located and by means of curve scissors muscle was elevated and a longitudinal incision of about 5 mm was made, thus the muscle origin and insertion remained intact. The skin of the paw was stitched with a suturing stitch with breaded silk (3.0) and the wound was cleaned out with povidone.\nThe assessment was performed 30 minutes after the administration of product and always 4 hours after the plantar incision. The analysis was carried out evaluating the mechanical allodynia. It was tested using von Frey filaments: Animals were placed in methacrylate cylinders on an elevated surface, with metallic mesh floor perforated in order to apply the filaments. After an acclimation period of about 30 minutes within the cylinders, both hindpaws were stimulated (the injured and the non-injured paw, serving the latter as control), starting with the lowest force filament (0.4 g) and reaching a 15 g filament. The animal's response to pain was manifested by the withdrawal of the paw as a consequence of the painful stimulus caused by a filament.\n(§1) The efficacy of the combined use of Pregabalin and compound 63.HCl was tested at different doses of compound 63.HCl (5, 10, 20, 40 and 80 mg/kg), while the Pregabalin dose remained constant (0.04 mg/kg). The administrations were performed 3.5 hours after surgery. The treated subjects were tested according to the mechanical allodynia protocol above (FIG. 1).\nas §1, with “Gabapentin” for “Pregabalin”, “(10,” for “(5, 10,”, “(10” for “(0.04”, “2).” for “1).”",
  "note": "Structures can show the parent of a compound that is named as a salt.",
  "data": [
    {"compound": "NCC1(CC(=O)O)CCCCC1", "note": "[Gabapentin]", "values": [
      {"measurement": "effect (analgesia, mechanical allodynia)", "setting": "Gabapentin alone at 10 mg/kg, non-significant, FIG. 2", "value": "0±2", "unit": "%"}
    ]},
    {"compound": "Cc1cc(OCCN2CCOCC2)nn1-c1ccc2ccccc2c1", "note": "[compound 63.HCl, 4-{2-[5-Methyl-1-(naphthalen-2-yl)-1H-pyrazol-3-yloxy]ethyl}morpholine hydrochloride]", "values": [
      {"measurement": "ED50", "setting": "Rattus norvegicus, compound alone, 10, 20, 40 and 80 mg/kg, FIG. 2", "value": 40, "unit": "mg/kg"},
      {"measurement": "Emax", "setting": "Rattus norvegicus, compound alone, dose dependent (5, 10, 20, 40 and 80 mg/kg), FIG. 1, 30 min after administration, 4 h after plantar incision, read-out: maximum effect", "value": 43, "unit": "%"}
    ]},
    {"compound": "CC(C)C[C@H](CN)CC(=O)O", "note": "[Pregabalin]", "values": [
      {"measurement": "effect (analgesia, mechanical allodynia)", "setting": "Pregabalin alone, sub-active dose 0.04 mg/kg, FIG. 1", "value": "non-significant effect"}
    ]}
  ]
}
